# Species on record: Rattus norvegicus
# Test: Open TG-GATES - Regimen: Daily Repeat
# Format: toxicity, organism-based, Sprague-Dawley
# Design: regimen Daily Repeat, gender Male, age 6 weeks
# Conditions: in vivo, po, 300 mg/kg, route gavage, dose level High; for APTT / Bas / Eos / Fbg / Hb / Ht / Lym / MCH / MCHC / MCV / Mono / Neu / PT / Plat / RBC / Ret / WBC: tissue Blood; for KIDNEY_L / KIDNEY_R / KIDNEY_TOTAL: tissue Kidney; for LIVER: tissue Liver; for A/G / ALP / ALT / AST / BUN / CRE / Ca / Cl / DBIL / GLC / IP / K / LDH / Na / PL / RALB / TBIL / TC / TG / TP / gamma-GTP: tissue Plasma
structure (smiles),measurement,setting,value
Clc1c(Cl)c(Cl)c(Cl)c(Cl)c1Cl [PERCHLOROBENZENE],TERMINAL_BW,"72 h, time 3 day",226 g
same,APTT,"72 h, time 3 day",15.9 s
same,Bas,"72 h, time 3 day",0%
same,Eos,"72 h, time 3 day",1.2%
same,Fbg,"72 h, time 3 day",225.4 mg/dL
same,Hb,"72 h, time 3 day",14.3 g/dL
same,Ht,"72 h, time 3 day",42.9%
same,Lym,"72 h, time 3 day",71.2%
same,MCH,"72 h, time 3 day",21.6 pg
same,MCHC,"72 h, time 3 day",33.2%
same,MCV,"72 h, time 3 day",65.2 fL
same,Mono,"72 h, time 3 day",10.6%
same,Neu,"72 h, time 3 day",16.8%
same,PT,"72 h, time 3 day",11 s
same,Plat,"72 h, time 3 day",98.4 x10_4/uL
same,RBC,"72 h, time 3 day",658.8 x10_4/ul
same,Ret,"72 h, time 3 day",8%
same,WBC,"72 h, time 3 day",106.3 x10_2/uL
same,KIDNEY_L,"72 h, time 3 day",1 g
same,KIDNEY_R,"72 h, time 3 day",1 g
same,KIDNEY_TOTAL,"72 h, time 3 day",2 g
same,LIVER,"72 h, time 3 day",13.7 g
same,A/G,"72 h, time 3 day",2.1
same,ALP,"72 h, time 3 day",720.6 IU/L
same,ALT,"72 h, time 3 day",41 IU/L
same,AST,"72 h, time 3 day",64.8 IU/L
same,BUN,"72 h, time 3 day",15 mg/dL
same,CRE,"72 h, time 3 day",0.6 mg/dL
same,Ca,"72 h, time 3 day",10.7 mg/dL
same,Cl,"72 h, time 3 day",105.8 meq/L
same,DBIL,"72 h, time 3 day",0.002 mg/dL
same,GLC,"72 h, time 3 day",184 mg/dL
same,IP,"72 h, time 3 day",8.3 mg/dL
same,K,"72 h, time 3 day",5.1 meq/L
same,LDH,"72 h, time 3 day",186 IU/L
same,Na,"72 h, time 3 day",138.8 meq/L
same,PL,"72 h, time 3 day",165.8 mg/dL
same,RALB,"72 h, time 3 day",3.9 g/dL
same,TBIL,"72 h, time 3 day",0.5 mg/dL
same,TC,"72 h, time 3 day",92.2 mg/dL
same,TG,"72 h, time 3 day",160.4 mg/dL
same,TP,"72 h, time 3 day",5.7 g/dL
same,gamma-GTP,"72 h, time 3 day",1.4 IU/L
same,TERMINAL_BW,"[…], time 7 day",262.7 g
same,TERMINAL_BW,"[…], time 14 day",310.5 g
same,TERMINAL_BW,"[…], time 28 day",358.3 g
same,APTT,"[…], time 7 day",16.1 s
same,Bas,"[…], time 7 day",0%
same,Eos,"[…], time 7 day",1%
same,Fbg,"[…], time 7 day",255.6 mg/dL
same,Hb,"[…], time 7 day",14.2 g/dL
same,Ht,"[…], time 7 day",43.1%
same,Lym,"[…], time 7 day",71.2%
same,MCH,"[…], time 7 day",21.5 pg
same,MCHC,"[…], time 7 day",33%
same,MCV,"[…], time 7 day",65 fL
same,Mono,"[…], time 7 day",9.4%
same,Neu,"[…], time 7 day",18.4%
same,PT,"[…], time 7 day",11.2 s
same,Plat,"[…], time 7 day",115 x10_4/uL
same,RBC,"[…], time 7 day",662 x10_4/ul
same,Ret,"[…], time 7 day",6.3%
same,WBC,"[…], time 7 day",117.1 x10_2/uL
same,APTT,"[…], time 14 day",20.8 s
same,Bas,"[…], time 14 day",0%
same,Eos,"[…], time 14 day",1.2%
same,Fbg,"[…], time 14 day",280.2 mg/dL
same,Hb,"[…], time 14 day",13.9 g/dL
same,Ht,"[…], time 14 day",41.6%
same,Lym,"[…], time 14 day",67.8%
same,MCH,"[…], time 14 day",20.7 pg
same,MCHC,"[…], time 14 day",33.3%
same,MCV,"[…], time 14 day",62.1 fL
same,Mono,"[…], time 14 day",14.8%
same,Neu,"[…], time 14 day",16.4%
same,PT,"[…], time 14 day",12.7 s
same,Plat,"[…], time 14 day",120.7 x10_4/uL
same,RBC,"[…], time 14 day",669.4 x10_4/ul
same,Ret,"[…], time 14 day",4.2%
same,WBC,"[…], time 14 day",140.9 x10_2/uL
same,APTT,"[…], time 28 day",22.1 s
same,Bas,"[…], time 28 day",0%
same,Eos,"[…], time 28 day",1.8%
same,Fbg,"[…], time 28 day",305.4 mg/dL
same,Hb,"[…], time 28 day",15.1 g/dL
same,Ht,"[…], time 28 day",45.5%
same,Lym,"[…], time 28 day",73.2%
same,MCH,"[…], time 28 day",19.4 pg
same,MCHC,"[…], time 28 day",33.2%
same,MCV,"[…], time 28 day",58.4 fL
same,Mono,"[…], time 28 day",11.8%
same,Neu,"[…], time 28 day",13.4%
same,PT,"[…], time 28 day",14 s
same,Plat,"[…], time 28 day",92 x10_4/uL
same,RBC,"[…], time 28 day",779.6 x10_4/ul
same,Ret,"[…], time 28 day",2.9%
same,WBC,"[…], time 28 day",161.2 x10_2/uL
same,KIDNEY_L,"[…], time 7 day",1.2 g
same,KIDNEY_R,"[…], time 7 day",1.3 g
same,KIDNEY_TOTAL,"[…], time 7 day",2.5 g
same,KIDNEY_L,"[…], time 14 day",1.4 g
same,KIDNEY_R,"[…], time 14 day",1.3 g
same,KIDNEY_TOTAL,"[…], time 14 day",2.7 g
same,KIDNEY_L,"[…], time 28 day",1.6 g
same,KIDNEY_R,"[…], time 28 day",1.6 g
same,KIDNEY_TOTAL,"[…], time 28 day",3.3 g
same,LIVER,"[…], time 7 day",18.4 g
same,LIVER,"[…], time 14 day",24.3 g
same,LIVER,"[…], time 28 day",31 g
same,A/G,"[…], time 7 day",2.1
same,ALP,"[…], time 7 day",604.6 IU/L
same,ALT,"[…], time 7 day",35.6 IU/L
same,AST,"[…], time 7 day",55.4 IU/L
same,BUN,"[…], time 7 day",15.8 mg/dL
same,CRE,"[…], time 7 day",0.7 mg/dL
same,Ca,"[…], time 7 day",10.9 mg/dL
same,Cl,"[…], time 7 day",104.4 meq/L
same,DBIL,"[…], time 7 day",0.01 mg/dL
same,GLC,"[…], time 7 day",173.4 mg/dL
same,IP,"[…], time 7 day",8.9 mg/dL
same,K,"[…], time 7 day",4.7 meq/L
same,LDH,"[…], time 7 day",178.4 IU/L
same,Na,"[…], time 7 day",138.8 meq/L
same,PL,"[…], time 7 day",205.8 mg/dL
same,RALB,"[…], time 7 day",4.2 g/dL
same,TBIL,"[…], time 7 day",0.4 mg/dL
same,TC,"[…], time 7 day",124.6 mg/dL
same,TG,"[…], time 7 day",147.2 mg/dL
same,TP,"[…], time 7 day",6.2 g/dL
same,gamma-GTP,"[…], time 7 day",2.6 IU/L
same,A/G,"[…], time 14 day",2
same,ALP,"[…], time 14 day",379.8 IU/L
same,ALT,"[…], time 14 day",32.8 IU/L
same,AST,"[…], time 14 day",51.6 IU/L
same,BUN,"[…], time 14 day",17.2 mg/dL
same,CRE,"[…], time 14 day",0.6 mg/dL
same,Ca,"[…], time 14 day",10.6 mg/dL
same,Cl,"[…], time 14 day",107.4 meq/L
same,DBIL,"[…], time 14 day",0.01 mg/dL
same,GLC,"[…], time 14 day",165.6 mg/dL
same,IP,"[…], time 14 day",8 mg/dL
same,K,"[…], time 14 day",4.6 meq/L
same,LDH,"[…], time 14 day",199.6 IU/L
same,Na,"[…], time 14 day",140.4 meq/L
same,PL,"[…], time 14 day",199.6 mg/dL
same,RALB,"[…], time 14 day",4.4 g/dL
same,TBIL,"[…], time 14 day",0.4 mg/dL
same,TC,"[…], time 14 day",124 mg/dL
same,TG,"[…], time 14 day",144.4 mg/dL
same,TP,"[…], time 14 day",6.8 g/dL
same,gamma-GTP,"[…], time 14 day",4 IU/L
same,A/G,"[…], time 28 day",1.8
same,ALP,"[…], time 28 day",213.2 IU/L
same,ALT,"[…], time 28 day",41.6 IU/L
same,AST,"[…], time 28 day",43.8 IU/L
same,BUN,"[…], time 28 day",19.2 mg/dL
same,CRE,"[…], time 28 day",0.7 mg/dL
same,Ca,"[…], time 28 day",10.8 mg/dL
same,Cl,"[…], time 28 day",105.4 meq/L
same,DBIL,"[…], time 28 day",0.038 mg/dL
same,GLC,"[…], time 28 day",151 mg/dL
same,IP,"[…], time 28 day",8.4 mg/dL
same,K,"[…], time 28 day",5 meq/L
same,LDH,"[…], time 28 day",163.2 IU/L
same,Na,"[…], time 28 day",143 meq/L
same,PL,"[…], time 28 day",175 mg/dL
same,RALB,"[…], time 28 day",4.7 g/dL
same,TBIL,"[…], time 28 day",0.3 mg/dL
same,TC,"[…], time 28 day",107.6 mg/dL
same,TG,"[…], time 28 day",174 mg/dL
same,TP,"[…], time 28 day",7.3 g/dL
same,gamma-GTP,"[…], time 28 day",7.8 IU/L

# Reference: ChEMBL document CHEMBL3885861, “Open TG-GATES”
